Assay results as given in patent US20210122730A1, “GLUCOCORTICOID RECEPTOR MODULATORS” (ORIC Pharmaceuticals, Inc., priority 2017, published 2021).
pIC50: −log10 of the molar value.

Molecular target: T1, GR (Homo sapiens, UniProt P04150)
T1 construct: expressed in transfected cells; host or cells: CHO-K1
T1 sequence (P04150 1-777): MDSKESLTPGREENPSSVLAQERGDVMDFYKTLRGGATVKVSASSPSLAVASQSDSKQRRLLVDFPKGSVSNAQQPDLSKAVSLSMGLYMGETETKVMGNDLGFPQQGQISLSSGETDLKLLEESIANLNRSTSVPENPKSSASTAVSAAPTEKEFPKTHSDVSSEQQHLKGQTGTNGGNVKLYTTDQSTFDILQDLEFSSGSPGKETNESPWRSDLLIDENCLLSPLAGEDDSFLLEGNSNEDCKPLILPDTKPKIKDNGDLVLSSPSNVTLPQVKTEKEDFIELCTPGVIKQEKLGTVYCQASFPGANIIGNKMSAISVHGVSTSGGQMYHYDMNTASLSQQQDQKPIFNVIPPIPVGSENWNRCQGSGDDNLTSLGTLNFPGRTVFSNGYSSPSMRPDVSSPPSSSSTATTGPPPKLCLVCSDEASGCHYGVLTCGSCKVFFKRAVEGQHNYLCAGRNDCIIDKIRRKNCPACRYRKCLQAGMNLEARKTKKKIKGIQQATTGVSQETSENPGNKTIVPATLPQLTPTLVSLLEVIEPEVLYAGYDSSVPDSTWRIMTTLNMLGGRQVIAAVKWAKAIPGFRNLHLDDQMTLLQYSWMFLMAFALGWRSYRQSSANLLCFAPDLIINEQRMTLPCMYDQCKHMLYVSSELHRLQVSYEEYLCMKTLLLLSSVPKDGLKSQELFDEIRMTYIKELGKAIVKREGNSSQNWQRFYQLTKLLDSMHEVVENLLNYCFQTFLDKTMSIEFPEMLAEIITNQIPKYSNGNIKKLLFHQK
Assay: In Vitro GR Luciferase Reporter Assay (antagonist mode, CHO-K1-GR-MMTV-Luc reporter cells)
Type: cell-based
Conditions: antagonist assay with 10 nM Dexamethasone, 18-24 hours
Source text: Example A: In Vitro GR Luciferase Reporter Assay
Cell Line: CHO-K1-GR-MMTV-Luc reporter cells
Culture Media: DMEM (with phenol red)+10% FBS
Assay Media: DMEM (without phenol red)+10% CSS
Culture CHO-K1I-GR-MMTV-Luc reporter cells in 15 cm plates in Culture Media at conditions less than 90% confluence.
Prepare 200×DMSO 1:5 serial dilutions of control and test compounds in 96-well non-sterile V bottom plate in DMSO, 8serial dilutions for each compound.
Prepare 5× Assay Media diluted compound serial dilutions in 96-well non-sterile V bottom plate: Add 97.5 uL/well of Assay Media into 96-well then add 2.5 ul of 200× concentration of compounds and mix well.
Seed cells for Antagonist Assay: […] CHO-K1-GR-MMTV-Luc reporter cells were seeded in a Corning 3707 flat clear bottom 384-well white TC plate in 20 ul of Assay Media containing 12.5 nM Dexamethasone (final concentration=10 nM).
Add compounds: 5 ul of assay media diluted compounds were added to appropriate wells and followed a quick spin (1000 rpm, 10 sec) to bring media and cells to the bottom of plate. The plates were covered with SealMate film to avoid evaporation and placed in 37° C. incubator for approximately 18-24 hours.
Read plates: Equilibrate appropriate amount of Promega OneGlo luciferase reagent to room temperature. Remove the plates from incubator and add 25 uL of OneGlo reagent/well by multiple channel pipette and read the plates with Tecan F500 luminometer within 3 minutes.
The ability of the compounds disclosed herein to inhibit GR activity was quantified and the respective IC50 value was determined. Table 1and Table 2provide the cellular IC50 values of compounds disclosed herein.

SMILES | pIC50
Cn1cc(S(=O)(=O)[C@H]2CCC3=Cc4c(cnn4-c4ccc(F)cc4)C[C@]3(C(=O)c3cc(C(F)(F)F)ccn3)C2)cn1 [Example 3, ((4aS,6S)-1-(4-Fluorophenyl)-6-((1-methyl-1H-pyrazol-4-yl)sulfonyl)-1,4,5,6,7,8-hexahydro-4aH-benzo[f]indazol-4a-yl)(4-(trifluoromethyl)pyridin-2-yl)methanone] | ≥ 7.00
O=C(c1ccccc1)N(C1CC1)[C@H]1CCC2=Cc3c(cnn3-c3ccc(F)cc3)C[C@]2(C(=O)c2ccccn2)C1 [Example 6, N-Cyclopropyl-N-((4aS,6S)-1-(4-fluorophenyl)-4a-picolinoyl-4,4a,5,6,7,8-hexahydro-1H-benzo[f]indazol-6-yl)benzamide] | ≥ 7.00
O=C(c1ccccn1)[C@]12Cc3cnn(-c4ccc(F)cc4)c3C=C1CC[C@H](S(=O)(=O)N1CCCCC1)C2 [Example 7, [(4aS,6S)-1-(4-Fluorophenyl)-6-(1-piperidylsulfonyl)-5,6,7,8-tetrahydro-4H-benzo[f]indazol-4a-yl]-(2-pyridyl)methanone] | ≥ 7.00
O=C(c1cc(C(F)(F)F)ccn1)[C@]12Cc3cnn(-c4ccc(F)cc4)c3C=C1CC[C@H](S(=O)(=O)c1ccc(F)c(F)c1)C2 [Example 14, ((4aS,6S)-6-((3,4-difluorophenyl)sulfonyl)-1-(4-fluorophenyl)-1,4,5,6,7,8-hexahydro-4aH-benzo[f]indazol-4a-yl)(4-(trifluoromethyl)pyridin-2-yl)methanone] | ≥ 7.00

Second part, the compound after the results:

pIC50 | SMILES
≥ 7.00 | Cc1ccc(S(=O)(=O)[C@H]2CCC3=Cc4c(cnn4-c4ccc(F)cc4)C[C@]3(C(=O)c3ccccn3)C2)cc1 [Example 1, ((4aS,6S)-1-(4-Fluorophenyl)-6-tosyl-1,4,5,6,7,8-hexahydro-4aH-benzo[f]indazol-4a-yl)(pyridin-2-yl)methanone]
≥ 7.00 | Cc1ccc(S(=O)(=O)[C@@H]2CCC3=Cc4c(cnn4-c4ccc(F)cc4)C[C@]3(C(=O)c3ccccn3)C2)cc1 [Example 2, ((4aS,6R)-1-(4-Fluorophenyl)-6-tosyl-1,4,5,6,7,8-hexahydro-4aH-benzo[f]indazol-4a-yl)(pyridin-2-yl)methanone]
≥ 7.00 | Cc1ccc(S(=O)(=O)[C@H]2CCC3=Cc4c(cnn4-c4ccc(F)cc4)C[C@]3(C(=O)c3nccs3)C2)cc1 [Example 8, ((4aS,6S)-1-(4-fluorophenyl)-6-tosyl-1,4,5,6,7,8-hexahydro-4aH-benzo[f]indazol-4a-yl)(thiazol-2-yl)methanone]
≥ 7.00 | Cc1ccc(S(=O)(=O)[C@@H]2CCC3=Cc4c(cnn4-c4ccc(F)cc4)C[C@]3(C(=O)c3nccs3)C2)cc1 [Example 9, ((4aS,6R)-1-(4-fluorophenyl)-6-tosyl-1,4,5,6,7,8-hexahydro-4aH-benzo[f]indazol-4a-yl)(thiazol-2-yl)methanone]
≥ 7.00 | O=C(c1ccccn1)[C@]12Cc3cnn(-c4ccc(F)cc4)c3C=C1CC[C@H](S(=O)(=O)c1ccc(C(F)(F)F)cc1)C2 [Example 10, ((4aS,6S)-1-(4-fluorophenyl)-6-((4-(trifluoromethyl)phenyl)sulfonyl)-1,4,5,6,7,8-hexahydro-4aH-benzo[f]indazol-4a-yl)(pyridin-2-yl)methanone]
≥ 7.00 | O=C(c1ccccn1)[C@]12Cc3cnn(-c4ccc(F)cc4)c3C=C1CC[C@@H](S(=O)(=O)c1ccc(C(F)(F)F)cc1)C2 [Example 11, ((4aS,6R)-1-(4-fluorophenyl)-6-((4-(trifluoromethyl)phenyl)sulfonyl)-1,4,5,6,7,8-hexahydro-4aH-benzo[f]indazol-4a-yl)(pyridin-2-yl)methanone]
6.00 to 7.00 | O=C(c1nccs1)[C@]12Cc3cnn(-c4ccc(F)cc4)c3C=C1CC[C@H](S(=O)(=O)c1ccc(C(F)(F)F)cc1)C2 [Example 12, ((4aS,6S)-1-(4-fluorophenyl)-6-((4-(trifluoromethyl)phenyl)sulfonyl)-1,4,5,6,7,8-hexahydro-4aH-benzo[f]indazol-4a-yl)(thiazol-2-yl)methanone]
6.00 to 7.00 | O=C(c1nccs1)[C@]12Cc3cnn(-c4ccc(F)cc4)c3C=C1CC[C@@H](S(=O)(=O)c1ccc(C(F)(F)F)cc1)C2 [Example 13, ((4aS,6R)-1-(4-fluorophenyl)-6-((4-(trifluoromethyl)phenyl)sulfonyl)-1,4,5,6,7,8-hexahydro-4aH-benzo[f]indazol-4a-yl)(thiazol-2-yl)methanone]
≥ 7.00 | Cc1ccc(S(=O)(=O)[C@H]2CCC3=Cc4c(cnn4-c4ccc(F)cc4)C[C@]3(C(=O)c3cc(C(F)(F)F)ccn3)C2)cc1 [Example 15, ((4aS,6S)-1-(4-fluorophenyl)-6-tosyl-1,4,5,6,7,8-hexahydro-4aH-benzo[f]indazol-4a-yl)(4-(trifluoromethyl)pyridin-2-yl)methanone]

Same assay, conditions: antagonist mode, 10 nM Dexamethasone

pIC50 | SMILES
≥ 7.00 | C[C@@]1(S(=O)(=O)c2ccccc2)CCC2=Cc3c(cnn3-c3ccc(F)cc3)C[C@]2(C(=O)c2ccccn2)C1 (single isomer, unassigned) [Example 116, ((4aS,6R)-1-(4-Fluorophenyl)-6-methyl-6-(phenylsulfonyl)-1,4,5,6,7,8-hexahydro-4aH-benzo[f]indazol-4a-yl)(pyridin-2-yl)methanone or ((4aS,6S)-1-(4-fluorophenyl)-6-methyl-6-(phenylsulfonyl)-1,4,5,6,7,8-hexahydro-4aH-benzo[f]indazol-4a-yl)(pyridin-2-yl)methanone]
6.00 to 7.00 | C[C@@]1(S(=O)(=O)c2ccccc2)CCC2=Cc3c(cnn3-c3ccc(F)cc3)C[C@]2(C(=O)c2ccccn2)C1 (single isomer, unassigned) [Example 117, ((4aS,6R)-1-(4-Fluorophenyl)-6-methyl-6-(phenylsulfonyl)-1,4,5,6,7,8-hexahydro-4aH-benzo[f]indazol-4a-yl)(pyridin-2-yl)methanone or ((4aS,6S)-1-(4-fluorophenyl)-6-methyl-6-(phenylsulfonyl)-1,4,5,6,7,8-hexahydro-4aH-benzo[f]indazol-4a-yl)(pyridin-2-yl)methanone]
≥ 7.00 | Cn1cc(S(=O)(=O)C[C@@H]2CCC3=Cc4c(cnn4-c4ccc(F)cc4)C[C@]3(C(=O)c3cc(C(F)(F)F)ccn3)C2)cn1 (single isomer, unassigned) [Example 119]
≥ 7.00 | C[C@H]([C@H]1CCC2=Cc3c(cnn3-c3ccc(F)cc3)C[C@]2(C(=O)c2cc(C(F)(F)F)ccn2)C1)S(=O)(=O)c1cnn(C)c1 (single isomer, unassigned) [Example 120, ((4aR,6S)-1-(4-Fluorophenyl)-6-((R)-1-((1-methyl-1H-pyrazol-4-yl)sulfonyl)ethyl)-1,4,5,6,7,8-hexahydro-4aH-benzo[f]indazol-4a-yl)(4-(trifluoromethyl)pyridin-2-yl)methanone or ((4aR,6S)-1-(4-fluorophenyl)-6-((S)-1-((1-methyl-1H-pyrazol-4-yl)sulfonyl)ethyl)-1,4,5,6,7,8-hexahydro-4aH-benzo[f]indazol-4a-yl)(4-(trifluoromethyl)pyridin-2-yl)methanone]
≥ 7.00 | C[C@H]([C@H]1CCC2=Cc3c(cnn3-c3ccc(F)cc3)C[C@]2(C(=O)c2cc(C(F)(F)F)ccn2)C1)S(=O)(=O)c1cnn(C)c1 (single isomer, unassigned) [Example 121, ((4aR,6S)-1-(4-Fluorophenyl)-6-((R)-1-((1-methyl-1H-pyrazol-4-yl)sulfonyl)ethyl)-1,4,5,6,7,8-hexahydro-4aH-benzo[f]indazol-4a-yl)(4-(trifluoromethyl)pyridin-2-yl)methanone or ((4aR,6S)-1-(4-fluorophenyl)-6-((S)-1-((1-methyl-1H-pyrazol-4-yl)sulfonyl)ethyl)-1,4,5,6,7,8-hexahydro-4aH-benzo[f]indazol-4a-yl)(4-(trifluoromethyl)pyridin-2-yl)methanone]
